Non-standard residues stand in square brackets, D forms with d. Groups on a side chain read outwards from the residue. No end group written: not given here. AA10 = not defined here; AA1 = not defined here; AA2 = not defined here; AA6 = not defined here; AA9 = not defined here
Assays:
[1] = Metabolite study in human liver S9 (high resolution LC-MS); format: in vitro ADME
Protocol: Metabolite studies were conducted using Q-M3190 and Q-6009 (Q is Glutamine).
Liver S9 is the supernatant obtained by grinding and centrifuging the liver cells. The enzymes content is lower compared to Hepatocytes. It mainly contains CYP enzymes and some biphasic enzymes (but no biphasic coenzyme), so additional coenzyme (NADPH and UDPGA, etc.) is needed to mediate the biphasic reaction.

GLP-1R [2] = biological target: T1, GLP-1R (Homo sapiens, UniProt P43220); assay: b-arrestin 2 recruitment enzyme fragment complementation assay in HEK293/b-arrestin2/hGLP1R cells; format: cell-based; parameters: The full-length human GLP1R (NP_002053.3) with a C-terminus fusion to a small b-gal fragment called enzyme donor or ProLink (PK); host or cells: HEK293/b-arrestin2-EA (HEK293/Barrestin clone 2C6/hGLP1R-Prolink1 high sorted, ACL21687)
T1 sequence (P43220 24-463): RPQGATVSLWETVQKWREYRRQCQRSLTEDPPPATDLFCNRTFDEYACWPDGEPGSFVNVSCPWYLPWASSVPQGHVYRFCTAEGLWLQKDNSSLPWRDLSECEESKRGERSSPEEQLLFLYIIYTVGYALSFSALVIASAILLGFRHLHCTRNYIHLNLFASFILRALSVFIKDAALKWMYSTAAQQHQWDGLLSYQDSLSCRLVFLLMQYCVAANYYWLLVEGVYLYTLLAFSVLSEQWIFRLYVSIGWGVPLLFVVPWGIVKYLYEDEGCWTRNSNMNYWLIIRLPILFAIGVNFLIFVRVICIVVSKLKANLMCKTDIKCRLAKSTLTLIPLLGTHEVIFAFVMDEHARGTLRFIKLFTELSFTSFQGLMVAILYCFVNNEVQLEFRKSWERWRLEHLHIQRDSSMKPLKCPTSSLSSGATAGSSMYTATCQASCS
Excerpt: To test the recruitment of b-arrestin 1 and b-arrestin 2 to GLP1R upon receptor activation, two enzyme fragment complementation assays were developed. To generate the assay cell lines, b-arrestin 1 fused to the b-galactosidase (b-gal) reporter fragment called enzyme acceptor (EA) (i.e., b-arrestin1-EA) or b-arrestin 2 fused to the b-gal reporter fragment EA (i.e., b-arrestin2-EA) were transduced into HEK293 cells using PathHunter b-Arrestinl Retroparticles (DiscoverX, #83-OT-TB-N-01) or PathHunter b-Arrestin2 Retroparticles (DiscoverX, #93-1087), respectively. The full-length human GLP1R (NP_002053.3) with a C-terminus fusion to a small b-gal fragment called enzyme donor or ProLink (PK) (i.e., hGLP1R-PK) was then engineered into HEK293/b-arrestinl-EA cells and HEK293/b-arrestin2-EA cells to generate the cell lines referred herein as HEK293/b-arrestin1/hGLP1R and HEK293/b-arrestin2/hGLP1R. Recruitment of b-arrestin 1 or b-arrestin 2 to GLP1R in these reporter cell lines brings both b-gal fragments (EA and PK) into close proximity, leading to reconstitution of a fully functional enzyme capable of hydrolyzing a substrate and generating a chemiluminescent signal.
(§1) For all assays, cells were seeded into 384-well plates (Falcon #353988) at 6,000 cells/well in assay media (Opti-MEM, 1% FBS, 1×Penicillin-Streptomycin) and incubated overnight at 37° C. Serial dilutions of the anti-GLP1R ATLs and non-binding control ATLs were performed in assay media. Serial dilutions of linker-payloads (LPs) were performed in 100% DMSO (ATCC, #4-X-5), followed by 1:100 dilution in assay media. Test articles were added to cells (1:5 dilution) using VIAFLO 384 (Integra) with the last well in each serial dilution series serving as a blank control containing only assay media for ATLs or assay media with 0.2% DMSO for LPs. The blank was plotted as a continuation of the serial dilution.
For b-arrestin 1 and b-arrestin 2 recruitment assays, after a 1-hour incubation at 37° C., PathHunter Detection Reagent (Eurofins DiscoverX, #93-0001) was added to the wells followed by a 1-hour incubation at room temperature. RLUs were measured on EnVision Plate Reader (Perkin Elmer).
(§2) EC50 values for luminescence assays were determined using a four-parameter logistic equation over a 12-point dose response curve (GraphPad Prism).

GLP-1R [3] = biological target: T1, GLP-1R; assay: CRE-Luc cAMP responsive luciferase reporter assay in HEK293/CRE-Luc/hGLP1R cells; format: cell-based; parameters: engineered to express full-length human GLP1R (GenBank: AAI12127.1) (HEK293/CRE-Luc/hGLP1R); expressed in transfected cells; host or cells: HEK293/CRE-Luc (HEK293/FSC11/pCDNA3.1 + GLP1R, ACL6822); conditions: for Emax: HEK293, read-out: Emax (% GLP-1), CRE-dependent reporter activity, HEK293/CRE-Luc/hGLP1R
Excerpt: To test the activity of GLP1R agonist linker-payloads (LPs) and anti-GLP1R antibody-tethered ligands (ATLs) of the invention, a cell-based cAMP responsive luciferase reporter assay was developed. To generate the assay cell line, the firefly luciferase gene was placed under the control of four copies of a cAMP response element (4×CRE) located upstream of a minimal promoter and transfected into HEK293 cells and referred to herein as HEK293/CRE-Luc cells. HEK293/CRE-Luc cells were then engineered to express full-length human GLP1R (GenBank: AAI12127.1) (HEK293/CRE-Luc/hGLP1R).
as §1
For the CRE-Luc assay, after a 5-hours incubation at 37° C., luciferase activity was determined by addition of ONE-Glo reagent (Promega, #E6130) followed by measurement of relative light units (RLUs) on EnVision Plate Reader (Perkin Elmer).
as §2

GLP-1R [4] = biological target: T1, GLP-1R; assay: GLP-1R cAMP assay of peptides (Tables 10, 14, 15); format: cell-based
[5] = biological target: GLP-1R of the cAMP assay of Tables 10, 14 and 15 (human, UniProt P43220 24-463, limits assumed); assay: cell-based or functional assay
[6] = biological target: full-length human GLP1R (GenBank: AAI12127.1) expressed on HEK293/CRE-Luc/hGLP1R cells (human, UniProt P43220 24-463); assay: cell-based or functional assay
[7] = metabolites of Q-M6009 at 4 hours in human liver S9
[8] = HEK293, read-out: Emax (% GLP-1), b-Arrestin2 recruitment, HEK293/b-arrestin2/hGLP1R
[9] = metabolites of Q-M3190 at 4 hours in human liver S9

## C[C@@H](O)[C@H](NC(=O)CNC(=O)[C@H](Cc1nn[nH]n1)NC(=O)C(C)(C)C(=O)NCCc1cnc[nH]1)C(=O)N[C@@](C)(Cc1ccccc1F)C(=O)N[C@H](C(=O)N[C@@H](CO)C(=O)N[C@@H](CC(=O)O)C(=O)O)[C@@H](C)O [AA10-AA(-AA8-AA7-AA6-AA5-AA4-AA3]
[1]; [7]
  Relative Abundance (% Total): 0.21 % Total

## CCc1cc(OCCCCn2cc(COCCOCCOCCOCCOCCOCCOCCOCCN)nn2)ccc1-c1ccc(C[C@H](NC(=O)[C@H](CC(=O)O)NC(=O)[C@H](CO)NC(=O)[C@@H](NC(=O)[C@](C)(Cc2ccccc2F)NC(=O)[C@@H](NC(=O)CNC(=O)[C@H](Cc2nn[nH]n2)NC(=O)C(C)(C)C(=O)NCCc2cnc[nH]2)[C@@H](C)O)[C@@H](C)O)C(=O)N[C@@H](CCCc2cc(C)cc(C)c2)C(N)=O)cc1 [M3190]
GLP-1R [2]; [8]
  Emax: 128%
GLP-1R [2]; HEK293/b-arrestin2/hGLP1R cells, read-out: b-arrestin 2 recruitment EC50
  EC50: 3.51e-08 M
GLP-1R [2]; read-out: b-arrestin 2 recruitment Emax relative to GLP-1, HEK293/b-arrestin2/hGLP1R cells
  Emax: 128%
GLP-1R [3]
  Emax: 96.3%
GLP-1R [3]; HEK293/CRE-Luc/hGLP1R cells, independent experiments A, B, C, read-out: EC50 (M), CRE-dependent reporter activity, HEK293/CRE-Luc/hGLP1R
  EC50: 5.76e-10 M
GLP-1R [3]; HEK293/CRE-Luc/hGLP1R cells, read-out: CRE-dependent luciferase reporter activity EC50
  EC50: 5.76e-10 M
[1]; [9]
  Relative Abundance (% Total): 2.76 % Total
GLP-1R [4]; Table 14, peptide amides, read-out: cAMP EC50
  EC50: 0.318 nM

## CCc1cc(OCCCCn2cc(COCCOCCOCCOCCOCCOCCOCCOCCNC(=O)CCC(N)C(=O)O)nn2)ccc1-c1ccc(C[C@H](NC(=O)[C@H](CC(=O)O)NC(=O)[C@H](CO)NC(=O)[C@@H](NC(=O)C(C)(Cc2ccccc2F)NC(=O)[C@@H](NC(=O)CNC(=O)[C@H](Cc2nn[nH]n2)NC(=O)C(C)(C)C(=O)NCCc2cnc[nH]2)[C@@H](C)O)[C@@H](C)O)C(=O)N[C@@H](CCCc2cc(C)cc(C)c2)C(N)=O)cc1 (stereo partly drawn) [M6067]
[1]; [9]
  Relative Abundance (% Total): 56.51 % Total

## Cc1cc(OCCOCCOCCOCCOCCOCCOCCOCCN)ccc1-c1ccc(C[C@H](NC(=O)[C@H](CC(=O)O)NC(=O)[C@H](CO)NC(=O)[C@@H](NC(=O)C(C)(Cc2ccccc2F)NC(=O)[C@@H](NC(=O)CNC(=O)[C@H](Cc2nnn[nH]2)NC(=O)C(C)(C)C(=O)NCCc2cnc[nH]2)[C@@H](C)O)[C@@H](C)O)C(=O)O)cc1 (stereo partly drawn) [M6447]
GLP-1R [2]; [8]
  Emax: 0.3%
GLP-1R [2]; HEK293/b-arrestin2/hGLP1R cells
  b-arrestin 2 recruitment (in words): recruited very low levels of b-arrestin 2
GLP-1R [2]; HEK293/b-arrestin2/hGLP1R cells, independent experiments A, B, read-out: EC50 (M), b-Arrestin2 recruitment, HEK293/b-arrestin2/hGLP1R
  EC50: > 1e-06 M
GLP-1R [3]
  EC50: > 1e-06 M
  Emax: 9.8%
GLP-1R [3]; HEK293/CRE-Luc/hGLP1R cells
  CRE-dependent luciferase reporter activity (in words): very weak activator of CRE-dependent luciferase reporter activity

## CCc1cc(OCCCCn2cc(COCCOCCOCCOCCOCCOCCOCCOCCNC(=O)CC[C@H](N)C(=O)O)nn2)ccc1-c1ccc(C[C@H](NC(=O)[C@H](CC(=O)O)NC(=O)[C@H](CO)NC(=O)[C@@H](NC(=O)C(C)(Cc2ccccc2F)NC(=O)[C@@H](NC(=O)CNC(=O)[C@H](Cc2nn[nH]n2)NC(=O)C(C)(C)C(=O)NCCc2cnc[nH]2)[C@@H](C)O)[C@@H](C)O)C(=O)N[C@@H](CCCc2cc(C)cc(C)c2)C(=O)O)cc1 (stereo partly drawn) [Q-M6009]
[1]; [9]
  Relative Abundance (% Total): 38.40 % Total
[1]; [7]
  Relative Abundance (% Total): 79.84 % Total
GLP-1R [4]; Table 10
  GLP-1R CAMP Max: 106.2%
GLP-1R [4]; Table 10, read-out: GLP-1R CAMP EC50
  EC50: 3.21 nM

B1: AA10-AA9-AA8-AA7-AA6-AA5-AA4-AA3-AA2-OH (peptide)
peptide: [AA10][AA9]GT[AA6]TSDX-OH
modifications: not fully specified (residue 9); printed as AA10-AA9-AA8-AA7-AA6-AA5-AA4-AA3-AA2-OH
[5]
  GLP-1R CAMP EC50: 51.2 nM
  GLP-1R CAMP Max (%): 97.9%

B2: AA10-AA9-AA8-AA7-AA6-AA5-AA4-AA3-(Q-L)AA2-OH (peptide)
peptide: [AA10][AA9]GT[AA6]TSD[AA2]([Leu-Gln])-OH
modifications: reading uncertain; also: printed as AA10-AA9-AA8-AA7-AA6-AA5-AA4-AA3-(Q-L)AA2-OH
[5]
  GLP-1R CAMP EC50: > 1000 nM
  GLP-1R CAMP Max (%): 29.2%

B3: AA10-AA9-AA8-AA7-AA6-AA5-AA4-AA3-(LLQ-L)AA2-OH (peptide)
peptide: [AA10][AA9]GT[AA6]TSD[AA2]([Leu-Gln-Leu-Leu])-OH
modifications: reading uncertain; also: printed as AA10-AA9-AA8-AA7-AA6-AA5-AA4-AA3-(LLQ-L)AA2-OH
[5]
  GLP-1R CAMP EC50: > 1000 nM
  GLP-1R CAMP Max (%): 33.9%

B4: AA10-AA9-AA8-AA7-AA6-AA5-AA4-AA3-AA2-AA1-OH (peptide)
peptide: [AA10][AA9]GT[AA6]TXD[AA2][AA1]-OH
modifications: not fully specified (residue 7); printed as AA10-AA9-AA8-AA7-AA6-AA5-AA4-AA3-AA2-AA1-OH; also: AA2 azidobutoxy
[5]
  GLP-1R CAMP EC50: 2.94 nM
  GLP-1R CAMP Max (%): 122%

B5: M6009 (AA10-AA9-AA8-AA7-AA6-AA5-AA4-AA3-(L)AA2-AA1-OH) (peptide)
peptide: [AA10][AA9]GT[AA6]TSD[AA2](Leu)[AA1]-OH
modifications: reading uncertain; also: also named NH2-PEG8-triazole-P8 acid, printed as M6009 (AA10-AA9-AA8-AA7-AA6-AA5-AA4-AA3-(L)AA2-AA1-OH)
[5]
  GLP-1R CAMP EC50: 2.23 nM
  GLP-1R CAMP Max (%): 140%
[6]
  EC50 (M), CRE-dependent reporter activity, HEK293/CRE-Luc/hGLP1R: 4.64e-10 M
  Emax (% GLP-1), CRE-dependent reporter activity, HEK293/CRE-Luc/hGLP1R: 92.1 % GLP-1

B6: Q-M6009 (AA10-AA9-AA8-AA7-AA6-AA5-AA4-AA3-(Q-L)AA2-AA1-OH) (peptide)
peptide: XXGTXTSDXX-OH
modifications: not fully specified (residues 1, 2, 5, 9, 10); printed as Q-M6009 (AA10-AA9-AA8-AA7-AA6-AA5-AA4-AA3-(Q-L)AA2-AA1-OH)
[5]
  GLP-1R CAMP EC50: 3.21 nM
  GLP-1R CAMP Max (%): 106%

B7: LLQ-M6009 (AA10-AA9-AA8-AA7-AA6-AA5-AA4-AA3-(LLQ-L)AA2-AA1-OH) (peptide)
peptide: [AA10][AA9]GT[AA6]TSD[AA2]([Leu-Gln-Leu-Leu])[AA1]-OH
modifications: reading uncertain; also: printed as LLQ-M6009 (AA10-AA9-AA8-AA7-AA6-AA5-AA4-AA3-(LLQ-L)AA2-AA1-OH)
[5]
  GLP-1R CAMP EC50: 13.4 nM
  GLP-1R CAMP Max (%): 104%

Source: patent US20250171516A1, “PEPTIDE ACIDS AS A GLP1R AGONIST AND ANTIBODY-DRUG CONJUGATES THEREOF” (Regeneron Pharmaceuticals, Inc., priority 2023, published 2025)
